Some results are limits rather than exact numbers.

The assay concerns the target CDK2 (human) (UniProt P24941). In words: Enzyme Assay.
What is called Ki is a measure of affinity in units of concentration, obtained from inhibition or displacement. Low readings indicate tighter binding, high ones weaker binding. For the compound `Cc1cc(Nc2nc(COc3ccc4c(=O)[nH][nH]c4c3)nc3c2CN(Cc2ccccc2)CC3)n[nH]1`, the inhibition constant (Ki) was under 1000 nM.

`O=c1[nH][nH]c2ccc(-c3nc(Nc4n[nH]c5cccc(Cl)c45)c4ccccc4n3)c(C(F)(F)F)c12` showed a Ki of under 1000 nM.

In the case of `O=C(CCNc1nccnn1)Oc1ccc2c(=O)[nH][nH]c2c1`, the inhibition constant Ki was under 1000 nM.

`O=c1[nH][nH]c2ccc(-c3nc(Nc4cc(-c5ccccc5)[nH]n4)c4ccccc4n3)c(C(F)(F)F)c12` displayed a Ki of under 1000 nM.

Take `Cn1cnc(NC2COCC(Sc3ccc4c(=O)[nH][nH]c4c3)C2)c1` (configuration not stated): the Ki was under 1000 nM.

With `Cn1cnc(NCCC(Cc2ccccc2)Sc2ccc3c(=O)[nH][nH]c3c2)c1` (configuration not stated), the Ki is under 1000 nM.

`O=c1[nH][nH]c2cc(Nc3nc(Nc4n[nH]c5ccccc45)c4ccccc4n3)ccc12`: the Ki was under 1000 nM.

For the compound `O=c1[nH][nH]c2cc(Sc3cc4ccccc4c(Nc4cc(C5CC5)[nH]n4)n3)ccc12`, the Ki was under 1000 nM.

Turning to `O=c1[nH][nH]c2cc(C(F)(F)F)c(-c3cc(-c4ccncc4)nc(Nc4cc(C5CC5)[nH]n4)n3)cc12`, the Ki was under 1000 nM.

Take `O=c1[nH][nH]c2cc(SC3CCC(Nc4nccnn4)C3)ccc12` (configuration not stated): the inhibition constant (Ki) is under 1000 nM.

With `O=c1[nH][nH]c2cc(Nc3cccc(Nc4cc(C5CC5)[nH]n4)n3)ccc12`, the Ki is under 1000 nM.

The compound `Cc1cc(Nc2cccc(Sc3ccc4c(=O)[nH][nH]c4c3)n2)n[nH]1` returned an inhibitory constant (Ki) of under 1000 nM.

In turn, `Cc1cnc(NC2CCCC(Nc3ccc4c(=O)[nH][nH]c4c3)C2)s1` (configuration not stated) returned a Ki of under 1000 nM.

With `Cn1cnc(NC2COCC(SCc3ccc4c(=O)[nH][nH]c4c3)C2)c1` (configuration not stated), the Ki is under 1000 nM.

`Cc1cc(Nc2cc(C)[nH]n2)nc(Nc2ccc3c(=O)[nH][nH]c3c2)n1` had a Ki of under 1000 nM.

As to `O=c1[nH][nH]c2cc(OCCCNc3ccccn3)ccc12`, the Ki was under 1000 nM.

`O=c1[nH][nH]c2ccc(-c3nc(Nc4n[nH]c5c(F)cccc45)c4ccncc4n3)c(Cl)c12`: the inhibition constant (Ki) is under 1000 nM.

Compound `O=c1[nH][nH]c2ccc(-c3nc4c(c(Nc5n[nH]c6ccccc56)n3)CCCC4)c(C(F)(F)F)c12` gave a Ki of under 1000 nM.

Consider `O=c1[nH][nH]c2cc(C(F)(F)F)c(-c3cc(Nc4n[nH]c(C5CC5)n4)c4ccccc4n3)cc12`, for which the Ki is under 1000 nM.

`Cc1cccc(-c2cc(Nc3cc(C)[nH]n3)nc(Oc3ccc4c(=O)[nH][nH]c4c3)n2)c1` gave a Ki of under 1000 nM.

Regarding `Cc1cc(Nc2cc(-c3cc4c(=O)[nH][nH]c4cc3Cl)nc3c2CCCC3)n[nH]1`, the Ki was under 1000 nM.

The compound `Cc1cnc(Sc2ccc3c(=O)[nH][nH]c3c2)nc1Nc1cc(C2CC2)[nH]n1` displayed a Ki of under 1000 nM.

As to `O=c1[nH][nH]c2cc(SCCONc3cc(C4CC4)[nH]n3)ccc12`, the inhibition constant (Ki) was under 1000 nM.

`Cc1cc(Nc2nc(COc3ccc4[nH][nH]c(=O)c4c3)nc3c2CCCCC3)n[nH]1`: the inhibition constant Ki was under 1000 nM.

As for `Cc1cc(Nc2cc(-c3ccccc3C)nc(Sc3ccc4c(=O)[nH][nH]c4c3)n2)n[nH]1`, the Ki is under 1000 nM.

Consider `O=c1[nH][nH]c2cc(CCC3CCC(Nc4nccnn4)C3)ccc12` (configuration not stated), for which the Ki was under 1000 nM.

`Cn1cnc(NC(=O)CC(=O)Cc2ccc3c(=O)[nH][nH]c3c2)c1` had a Ki of under 1000 nM.

The compound `O=c1[nH][nH]c2cc(Oc3cc4ccccc4c(Nc4n[nH]c5ccccc45)n3)ccc12` gave an inhibition constant Ki of under 1000 nM.

For the compound `NCCOc1cccc2c(Nc3n[nH]c4ccccc34)nc(-c3ccc4[nH][nH]c(=O)c4c3C(F)(F)F)nc12`, the inhibitory constant (Ki) was under 1000 nM.

For `Cc1cnc(NC2CCCC(Oc3ccc4c(=O)[nH][nH]c4c3)C2)s1` (configuration not stated), the Ki was under 1000 nM.

Turning to `O=C(CCNc1ccccn1)Oc1ccc2c(=O)[nH][nH]c2c1`, the Ki is under 1000 nM.

As to `O=c1[nH][nH]c2cc(O)c(-c3nc(Nc4n[nH]c5c(F)cc(F)cc45)c4ccccc4n3)cc12`, the Ki was under 1000 nM.

`COc1nc(Nc2ccc3c(=O)[nH][nH]c3c2)nc(Nc2cc(C3CC3)[nH]n2)n1` registered an inhibition constant (Ki) of under 1000 nM.

`O=c1[nH][nH]c2cc(COCc3nc(Nc4cc(C5CC5)[nH]n4)c4ccccc4n3)ccc12`: the Ki was under 1000 nM.

Consider `O=c1[nH][nH]c2ccc(-c3cnnc(Nc4cc(C5CCCC5)[nH]n4)n3)cc12`, for which the Ki was under 1000 nM.

`CN(C)CCNC(=O)c1cc(Nc2n[nH]c3ccccc23)nc(Sc2ccc3c(=O)[nH][nH]c3c2)n1`: the inhibition constant Ki is under 1000 nM.

`Cc1cnc(NC2CCCC(SCc3ccc4c(=O)[nH][nH]c4c3)C2)s1` (configuration not stated) gave an inhibition constant (Ki) of under 1000 nM.

As to `Cc1cccc2c(Nc3cc(-c4ccccc4)[nH]n3)nc(-c3ccc4[nH][nH]c(=O)c4c3OC(F)(F)F)nc12`, the Ki was under 1000 nM.

In the case of `O=c1[nH][nH]c2ccc(C3CCC(Nc4nccnn4)C3)cc12` (configuration not stated), the inhibition constant (Ki) was under 1000 nM.

The compound `Cn1cnc(NC2COCC(Nc3ccc4c(=O)[nH][nH]c4c3)C2)c1` (configuration not stated) returned a Ki of under 1000 nM.

For the compound `O=c1[nH][nH]c2cc(OCCC(Nc3nccnn3)c3ccccc3)ccc12` (configuration not stated), the inhibitory constant (Ki) is under 1000 nM.

For the compound `O=c1[nH][nH]c2cc(SCCONc3nccnn3)ccc12`, the inhibition constant Ki is under 1000 nM.

For the compound `CC(C)(C)OC(=O)n1[nH]c(=O)c2cc(Nc3nc(Nc4cc(C5CC5)[nH]n4)c4ccccc4n3)ccc21`, the Ki was under 1000 nM.

Consider `O=c1[nH][nH]c2cc(CCCCNc3cc(C4CC4)[nH]n3)ccc12`, for which the Ki is under 1000 nM.

On to `Cc1cnc(NC2CCC(Oc3ccc4c(=O)[nH][nH]c4c3)C2)s1` (configuration not stated), for which the Ki was under 1000 nM.

Take `O=c1[nH][nH]c2cc(SC3CCCC(Nc4ccccn4)C3)ccc12` (configuration not stated): the inhibition constant Ki is under 1000 nM.

Regarding `O=c1[nH][nH]c2ccc(-c3nc(Nc4n[nH]c(-c5ccccc5)c4-c4ccccc4)c4ccccc4n3)c(C(F)(F)F)c12`, the Ki is under 1000 nM.

`O=C1Cc2nc(-c3ccc4[nH][nH]c(=O)c4c3C(F)(F)F)nc(Nc3n[nH]c4ccccc34)c2CN1`: the inhibition constant Ki is under 1000 nM.

The compound `O=c1[nH][nH]c2cc(NC3COCC(Nc4cc(C5CC5)[nH]n4)C3)ccc12` (configuration not stated) yielded a Ki of under 1000 nM.

`O=c1[nH][nH]c2cc(Oc3nc(Nc4cc(C5CC5)[nH]n4)cc(-c4ccccc4)n3)ccc12` returned a Ki of under 1000 nM.

In turn, `Cc1cnc(NCCC(Cc2ccccc2)Sc2ccc3c(=O)[nH][nH]c3c2)s1` (configuration not stated) had an inhibition constant (Ki) of under 1000 nM.

Turning to `Cc1cnc(NCCC(=O)Cc2ccc3c(=O)[nH][nH]c3c2)s1`, the Ki was under 1000 nM.

On to `COc1c(-c2nc(Nc3cc(C)[nH]n3)c3ccccc3n2)ccc2[nH][nH]c(=O)c12`, for which the inhibition constant Ki is under 1000 nM.

`O=c1[nH][nH]c2cc(NCCCNc3nccnn3)ccc12` registered an inhibition constant Ki of under 1000 nM.

In turn, `Cc1nc(-c2ccc3[nH][nH]c(=O)c3c2C(F)(F)F)nc(Nc2n[nH]c(C(C)C)n2)c1C` returned a Ki of under 1000 nM.

As for `Cc1cc(Nc2nc(Nc3ccc4c(=O)[nH][nH]c4c3)nc3ccccc23)n[nH]1`, the Ki was under 1000 nM.

As for `O=c1[nH][nH]c2cc(OC3CCCC(Nc4cc(C5CC5)[nH]n4)C3)ccc12` (configuration not stated), the Ki was under 1000 nM.

In turn, `O=c1[nH][nH]c2ccc(C3CCCC(Nc4ccccn4)C3)cc12` (configuration not stated) returned a Ki of under 1000 nM.

`CC(C)(C)c1cc(Nc2cc(-c3cccc([N+](=O)[O-])c3)nc(Nc3ccc4c(=O)[nH][nH]c4c3)n2)n[nH]1` registered a Ki of under 1000 nM.

Regarding `O=C(CCCc1ccc2c(=O)[nH][nH]c2c1)Nc1ccccn1`, the Ki was under 1000 nM.

For `N#Cc1cc(Nc2n[nH]c3ccccc23)nc(-c2ccc3[nH][nH]c(=O)c3c2C(F)(F)F)n1`, the inhibition constant Ki is under 1000 nM.

`Cn1cnc(NC(CCNc2ccc3c(=O)[nH][nH]c3c2)c2ccccc2)c1` (configuration not stated) registered a Ki of under 1000 nM.

The compound `O=c1[nH][nH]c2ccc(C3CCC(Nc4cc(C5CC5)[nH]n4)C3)cc12` (configuration not stated) yielded a Ki of under 1000 nM.

`COc1cc(-c2cc(Nc3cc(C)[nH]n3)nc(Nc3ccc4c(=O)[nH][nH]c4c3)n2)cc(OC)c1OC` displayed a Ki of under 1000 nM.

Turning to `O=c1[nH][nH]c2cc(C(F)(F)F)c(-c3nc4c(c(Nc5n[nH]c6ccc(F)cc56)n3)OCCC4)cc12`, the Ki is under 1000 nM.

The compound `Cc1cnc(NOCCNc2ccc3c(=O)[nH][nH]c3c2)s1` gave an inhibition constant (Ki) of under 1000 nM.

`Cc1cc(Nc2cc(C(C)(C)OCCN(C)C)nc(Sc3ccc4c(=O)[nH][nH]c4c3)n2)n[nH]1` had an inhibition constant (Ki) of under 1000 nM.

In turn, `O=c1[nH][nH]c2cc(Nc3nc(Nc4cc(C5CC5)[nH]n4)c4ccc(Cl)cc4n3)ccc12` gave a Ki of under 1000 nM.

`O=C(CCNc1ccc2c(=O)[nH][nH]c2c1)Nc1cc(C2CC2)[nH]n1` registered a Ki of under 1000 nM.

The compound `O=c1[nH][nH]c2cc(Cl)c(-c3nc(Nc4n[nH]c5ccccc45)nc(-c4cccnc4)n3)cc12` returned a Ki of under 1000 nM.

`O=c1[nH][nH]c2ccc(-c3nc(Nc4n[nH]c5cc(=O)n(-c6ccc(Oc7ccccc7)cc6)nc45)c4ccccc4n3)cc12`: the Ki is under 1000 nM.

With `Cc1cnc(NC(=O)CCSc2ccc3c(=O)[nH][nH]c3c2)s1`, the inhibition constant Ki was under 1000 nM.

`O=c1[nH][nH]c2cc(SC(CCNc3cc(C4CC4)[nH]n3)Cc3ccccc3)ccc12` (configuration not stated) showed a Ki of under 1000 nM.

`O=c1[nH][nH]c2cc(Nc3ncc(-c4cccs4)c(Nc4cc(C5CC5)[nH]n4)n3)ccc12` registered an inhibition constant Ki of under 1000 nM.

As for `O=c1[nH][nH]c2cc(OC3CCC(Nc4nccnn4)C3)ccc12` (configuration not stated), the Ki was under 1000 nM.

As for `O=c1[nH][nH]c2cc(Nc3nc(Nc4cc(C5CC5)[nH]n4)c4cc(Cl)ccc4n3)ccc12`, the Ki is under 1000 nM.

As to `Cc1cnc(NCCCNc2ccc3c(=O)[nH][nH]c3c2)s1`, the inhibitory constant (Ki) is under 1000 nM.

The compound `Cn1cnc(NCCC(=O)Cc2ccc3c(=O)[nH][nH]c3c2)c1` came in with an inhibition constant Ki of under 1000 nM.

`Cn1cnc(NC2CCCC(Sc3ccc4c(=O)[nH][nH]c4c3)C2)c1` (configuration not stated) showed an inhibition constant (Ki) of under 1000 nM.

`Cc1cc(Nc2cc(C)[nH]n2)nc(Cc2ccc3c(=O)[nH][nH]c3c2)n1` showed a Ki of under 1000 nM.

With `Cc1cnc(NC2CCC(c3ccc4[nH][nH]c(=O)c4c3)C2)s1` (configuration not stated), the Ki was under 1000 nM.

For the compound `CC(C)c1cc2[nH][nH]c(=O)c2cc1-c1nc(Nc2n[nH]c3ccccc23)c2ccccc2n1`, the Ki is under 1000 nM.

The compound `CC(C)(c1ccc2c(=O)[nH][nH]c2c1)C1CCC(Nc2ccccn2)C1` (configuration not stated) yielded a Ki of under 1000 nM.

Compound `O=C(CCNc1nccnn1)Nc1ccc2c(=O)[nH][nH]c2c1` returned a Ki of under 1000 nM.

`O=c1[nH][nH]c2cc(OCCCNc3nccnn3)ccc12` displayed an inhibitory constant (Ki) of under 1000 nM.

`O=c1[nH][nH]c2cc(NC3CCC(Nc4nccnn4)C3)ccc12` (configuration not stated): the Ki is under 1000 nM.

`Cn1cnc(NCCCNc2ccc3c(=O)[nH][nH]c3c2)c1` displayed a Ki of under 1000 nM.
